Experimental data published in ChEMBL document CHEMBL1201862, “PubChem BioAssay data set” (2004).
Activity calls are given as the source filed them.

How the values were obtained:
[1] = target: T1, Sentrin-specific protease 7 (Homo sapiens, UniProt Q9BQF6); type: functional;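 also: Luminescence-based dose-response confirmation of ultra-high-throughput screening hits, measuring inhibition of SENP7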
T1 sequence (Q9BQF6 whole entry): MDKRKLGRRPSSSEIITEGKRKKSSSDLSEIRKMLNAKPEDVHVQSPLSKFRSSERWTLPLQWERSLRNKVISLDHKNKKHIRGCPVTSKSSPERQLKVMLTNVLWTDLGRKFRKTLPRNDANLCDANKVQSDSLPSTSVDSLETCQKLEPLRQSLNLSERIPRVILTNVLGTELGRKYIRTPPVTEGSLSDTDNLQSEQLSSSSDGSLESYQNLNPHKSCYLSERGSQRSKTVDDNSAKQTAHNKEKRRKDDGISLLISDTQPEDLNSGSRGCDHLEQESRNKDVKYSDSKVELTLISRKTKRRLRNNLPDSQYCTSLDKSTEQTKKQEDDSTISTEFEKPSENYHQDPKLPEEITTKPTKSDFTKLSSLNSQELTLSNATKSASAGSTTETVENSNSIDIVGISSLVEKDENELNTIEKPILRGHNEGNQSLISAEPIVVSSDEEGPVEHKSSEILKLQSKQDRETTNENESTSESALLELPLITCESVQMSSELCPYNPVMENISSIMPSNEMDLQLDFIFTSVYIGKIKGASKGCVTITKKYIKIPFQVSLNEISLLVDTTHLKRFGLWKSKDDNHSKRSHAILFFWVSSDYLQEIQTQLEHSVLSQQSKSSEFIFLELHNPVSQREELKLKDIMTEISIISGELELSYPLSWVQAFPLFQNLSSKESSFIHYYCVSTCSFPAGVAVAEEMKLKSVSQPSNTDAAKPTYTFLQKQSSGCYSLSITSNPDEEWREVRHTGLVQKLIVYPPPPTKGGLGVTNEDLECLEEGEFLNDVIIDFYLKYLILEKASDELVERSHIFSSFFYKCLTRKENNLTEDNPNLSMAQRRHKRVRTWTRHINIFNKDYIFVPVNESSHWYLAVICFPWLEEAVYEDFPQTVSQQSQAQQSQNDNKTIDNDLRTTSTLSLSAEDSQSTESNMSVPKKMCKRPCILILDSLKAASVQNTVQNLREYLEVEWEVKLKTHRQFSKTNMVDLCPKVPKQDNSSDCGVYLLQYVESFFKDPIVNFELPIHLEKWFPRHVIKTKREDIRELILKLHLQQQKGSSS

[2] = growth suppression of beta-catenin-knockout colon cells, dose response, cell-based, HCT116, human colon tumor (AID 1045); type: functional;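 also: HCT116 colon tumor cells with beta catenin knocked out; cells exposed to compound for 60 hours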
[3] = target: ATP-dependent molecular chaperone HSP82 (Candida albicans (strain WO-1) (Yeast), UniProt C4YTQ8); assay: loss of DOC-induced GRE-beta-galactosidase reporter signal, dose response, Hsp90 inhibitor project, S. cerevisiae, luminescence (AID 2400); type: functional, cell-based;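 also: beta-galactosidase luminescence from glucocorticoid response element reporter as proxy for Hsp90 function; inhibitor potency where signal loss means Hsp90 inhibition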
Sequence of ATP-dependent molecular chaperone HSP82 (C4YTQ8 whole entry): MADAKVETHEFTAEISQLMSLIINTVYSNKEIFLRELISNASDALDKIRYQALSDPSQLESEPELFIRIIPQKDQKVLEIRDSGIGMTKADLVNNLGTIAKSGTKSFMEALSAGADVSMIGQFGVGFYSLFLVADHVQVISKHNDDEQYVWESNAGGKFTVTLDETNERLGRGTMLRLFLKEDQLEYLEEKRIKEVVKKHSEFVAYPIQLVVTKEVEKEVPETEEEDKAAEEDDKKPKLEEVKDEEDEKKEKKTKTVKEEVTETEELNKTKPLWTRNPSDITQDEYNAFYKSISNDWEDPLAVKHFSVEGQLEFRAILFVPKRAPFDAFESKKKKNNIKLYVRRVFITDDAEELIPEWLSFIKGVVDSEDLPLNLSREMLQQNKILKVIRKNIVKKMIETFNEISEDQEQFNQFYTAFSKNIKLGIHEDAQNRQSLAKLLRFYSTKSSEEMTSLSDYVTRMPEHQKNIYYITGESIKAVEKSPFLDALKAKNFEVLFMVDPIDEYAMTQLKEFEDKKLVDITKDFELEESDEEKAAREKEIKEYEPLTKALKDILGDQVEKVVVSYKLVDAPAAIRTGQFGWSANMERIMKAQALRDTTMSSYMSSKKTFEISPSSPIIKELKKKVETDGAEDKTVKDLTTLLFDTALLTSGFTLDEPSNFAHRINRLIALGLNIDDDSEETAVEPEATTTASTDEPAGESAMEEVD

[4] = C. albicans growth with fluconazole, confirmation, fluorescence, retest (AID 2467); type: functional, cell-based
[5] = target: T2, Sentrin-specific protease 8 (Homo sapiens, UniProt Q96LD8); type: functional;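 also: luminescence read-out of SENP8 inhibition, dose-response confirmation following an ultra-high-throughput screen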
T2 sequence (Q96LD8 whole entry): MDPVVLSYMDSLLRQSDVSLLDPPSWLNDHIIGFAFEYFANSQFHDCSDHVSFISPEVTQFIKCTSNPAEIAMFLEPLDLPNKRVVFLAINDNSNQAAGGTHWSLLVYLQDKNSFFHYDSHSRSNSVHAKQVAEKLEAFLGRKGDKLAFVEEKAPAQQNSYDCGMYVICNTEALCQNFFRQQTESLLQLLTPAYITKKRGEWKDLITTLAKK

[6] = target: T3, Sentrin-specific protease 6 (Homo sapiens, UniProt Q9GZR1); type: functional;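 also: Luminescence-based dose-response confirmatory assay of SENP6 inhibition, following up an ultra-high-throughput screen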
T3 sequence (Q9GZR1 whole entry): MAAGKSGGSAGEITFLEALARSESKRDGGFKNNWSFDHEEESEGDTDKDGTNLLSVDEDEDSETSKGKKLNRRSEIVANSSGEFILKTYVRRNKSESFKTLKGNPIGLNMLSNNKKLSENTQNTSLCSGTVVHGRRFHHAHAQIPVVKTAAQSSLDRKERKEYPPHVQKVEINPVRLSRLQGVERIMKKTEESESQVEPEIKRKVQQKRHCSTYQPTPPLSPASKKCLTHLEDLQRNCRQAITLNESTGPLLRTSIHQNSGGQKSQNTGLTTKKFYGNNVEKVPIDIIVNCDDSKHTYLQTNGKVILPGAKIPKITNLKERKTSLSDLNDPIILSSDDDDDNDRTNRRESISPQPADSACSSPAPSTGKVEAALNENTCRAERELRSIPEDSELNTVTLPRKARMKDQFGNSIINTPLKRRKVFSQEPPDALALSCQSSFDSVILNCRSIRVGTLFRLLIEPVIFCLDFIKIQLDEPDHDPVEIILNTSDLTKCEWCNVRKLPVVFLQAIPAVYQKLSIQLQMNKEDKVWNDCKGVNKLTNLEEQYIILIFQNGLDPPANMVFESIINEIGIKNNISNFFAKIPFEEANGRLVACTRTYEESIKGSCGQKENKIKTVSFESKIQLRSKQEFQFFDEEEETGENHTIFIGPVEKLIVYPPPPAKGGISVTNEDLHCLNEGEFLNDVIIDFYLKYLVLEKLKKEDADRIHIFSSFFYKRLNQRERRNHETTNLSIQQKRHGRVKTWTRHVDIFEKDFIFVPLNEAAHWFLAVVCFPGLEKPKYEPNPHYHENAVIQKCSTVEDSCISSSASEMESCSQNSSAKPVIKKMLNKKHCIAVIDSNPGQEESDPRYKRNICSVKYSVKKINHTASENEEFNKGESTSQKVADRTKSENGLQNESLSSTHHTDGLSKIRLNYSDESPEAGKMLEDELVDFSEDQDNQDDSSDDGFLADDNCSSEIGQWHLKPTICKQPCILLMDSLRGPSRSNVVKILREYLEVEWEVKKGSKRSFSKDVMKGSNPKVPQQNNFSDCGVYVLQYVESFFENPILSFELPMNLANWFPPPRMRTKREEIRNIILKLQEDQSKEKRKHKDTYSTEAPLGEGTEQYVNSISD

[7] = target: T4, Zinc finger protein mex-5 (Caenorhabditis elegans, UniProt Q9XUB2); assay: MEX-5/TCR-2 RNA interaction inhibitors, dose response, biochemical, C. elegans, fluorescence polarization (AID 1960)
T4 sequence (Q9XUB2 whole entry): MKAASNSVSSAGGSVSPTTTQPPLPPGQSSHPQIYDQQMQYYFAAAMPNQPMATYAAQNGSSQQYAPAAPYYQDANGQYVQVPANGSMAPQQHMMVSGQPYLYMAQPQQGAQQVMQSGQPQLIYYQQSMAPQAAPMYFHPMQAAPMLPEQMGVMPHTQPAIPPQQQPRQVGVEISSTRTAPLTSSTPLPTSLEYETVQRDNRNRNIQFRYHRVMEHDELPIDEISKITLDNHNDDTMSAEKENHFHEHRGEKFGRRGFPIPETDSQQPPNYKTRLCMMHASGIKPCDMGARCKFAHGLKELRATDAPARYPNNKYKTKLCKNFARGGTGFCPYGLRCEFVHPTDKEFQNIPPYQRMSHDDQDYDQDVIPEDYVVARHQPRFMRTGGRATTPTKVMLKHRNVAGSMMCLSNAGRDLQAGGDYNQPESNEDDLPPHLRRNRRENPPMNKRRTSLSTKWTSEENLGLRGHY

Cc1ccc(NC2=CC(=O)C(=O)c3ccccc32)cc1
active: IC50 [1] 36.7 µM | EC50 [2] 4.52 µM | EC50 [3] 40.7 µM | EC50 [4] 0.451 µM | IC50 [5] 21.6 µM | IC50 [6] 13.5 µM

O=C(O)c1ccc(S(=O)(=O)/N=C2\C=C(Nc3ccccc3F)C(=O)c3ccccc32)cc1
active: EC50 [7] 60.8 µM
